We go through 2 molecules from patent US20250352500A1, “USE OF PHENOLIC ACIDS DERIVATIVES IN TREATING ISCHEMIC STROKE” (LANZHOU UNIVERSITY, priority 2022, published 2025).

Holding throughout (type): in vivo, male C57/BL mice
Experiment [1] deals with HIF-1α. Put plainly: RT-qPCR of HIF-1α mRNA in brain tissue. As to conditions: 72 h; for HIF-1α mRNA expression level reduced compared with MCAO group: three days of administration, compound 2 100 mg/kg, compound 1 50 mg/kg. The method, then: (§1) Grouping and administration method: Male C57/BL mice weighing 23±1 g were randomly divided into sham operation group (SHAM), model group (MCAO), compound 2 group (100 mg/kg), and compound 1 group (50 mg/kg), with 10 mice in each group. Mice in the SHAM group underwent vascular isolation, but no […] was administered, and no treatment was given before or after surgery. The model group mice were constructed with MCAO models and were not treated before and after surgery. The treatment group was treated with compound 2 or compound 1 on the basis of the model group. Mice with a neurological score of 0 after reperfusion and those that died before 72 hours post-surgery were excluded. The administration time for animal behavior tests was seven times at 0 h, 1 day, 2 days, 3 days, 4 days, 5 days, and 6 days after reperfusion, while the administration time for other experiments was three times at 0 h, 1 day, and 2 days after reperfusion. The drug was administered through the tail vein, and the sham operation group and model group were given equal amounts of saline.
HIF-1α is a sensitive regulator of oxygen homeostasis, rapidly inducing its expression after hypoxia-ischemia. It plays a wide range of roles in the pathophysiology of stroke, including neuronal survival, neuroinflammation, angiogenesis, glucose metabolism, and blood-brain barrier regulation. It can not only produce specific sensations in the case of hypoxia, but also facilitate the maintenance of oxygen homeostasis in the body. […]
After 72 hours of ischemia-reperfusion, the mRNA expression level of HIF-1α in brain tissue was detected and analyzed by RT-qPCR. […] Compared with the compound 1 group, the expression level of HIF-1α in the compound 2 group decreased by 53±11% (P<0.001). n=3, data are presented as mean±SEM, analyzed using one-way ANOVA, and subjected to Tukey's HSD test. *P<0.05, **P<0.01, ***P<0.001. ^#P<0.05, ^##P<0.01, ^###P<0.001. * indicates a comparison with the SHAM group, indicates a comparison with the Compound 2 group.

The subject of experiment [2] is TNF-α. Put plainly: TNF-α immunofluorescence in brain tissue. Conditions: 72 h ischemia-reperfusion; compound 2 100 mg/kg, compound 1 50 mg/kg; MCAO group 361±48; mean±SEM, n=3. As to the method:
as §1, with “The administration time for animal behavior tests was seven times at 0 h, 1 day, 2 days, 3 days, 4 days, 5 days, and 6 days after reperfusion, while the administration time for other experiments was three times at 0 h, 1 day, and 2 days after reperfusion. The drug was administered through the tail vein, and the sham operation group and model group were given equal amounts of saline.” left out
(§2) To investigate the effect of compounds on the expression of inflammatory factors after ischemia-reperfusion, this study used immunofluorescence experiments to observe the expression of TNF-α, IL-1β, IL-6, iNOS, and COX2 proteins in brain tissue. […] The concentrations of TNF-α, IL-1β, and IL-6 in brain homogenate were detected by enzyme-linked immunosorbent assay (ELISA), and the expression level of TNF-α protein in brain tissue was detected by Western blot.
After 72 hours of ischemia-reperfusion, the expression changes of inflammatory factors such as TNF-α, IL-1β, IL-6, iNOS, and COX2 in brain regions were analyzed by immunofluorescence staining. […]

Experiment [3] relates to IL-6. Put plainly: ELISA of IL-6 in brain homogenate. As to conditions: 72 h, three days of administration, compound 2 100 mg/kg, compound 1 50 mg/kg. The method, then:
as §1, with “The administration time for animal behavior tests was seven times at 0 h, 1 day, 2 days, 3 days, 4 days, 5 days, and 6 days after reperfusion, while the administration time for other experiments was three times at 0 h, 1 day, and 2 days after reperfusion. The drug was administered through the tail vein, and the sham operation group and model group were given equal amounts of saline.” left out
as §2
After 72 hours of ischemia-reperfusion, the expression levels of inflammatory factors TNF-α, IL-1β, and IL-6 in the mouse brain homogenate were detected.
For orientation: In an ELISA, binding on a coated surface is turned into a signal by an enzyme label.

For experiment [4], the system named is iba1. Put plainly: iba1 protein Western blot in brain tissue. Conditions: for iba1 protein expression reduced compared with MCAO group: three days of administration, compound 2 100 mg/kg, compound 1 50 mg/kg. As to the method:
as §1
The expression level of the specific protein iba1 in microglia in brain tissues was detected by Western blot. (A) The representative WB images of iba1 protein expression in brain tissues of the sham operation group (SHAM), model group (MCAO), compound 2 group, and compound 1 group are shown in FIG. 8A, and the quantitative statistical results are shown in FIG. 8B. […] Compared with the MCAO group, the expression of iba1 protein decreased three days after administration of compound 1. Compared with the compound 1 group, the expression level of iba1 protein in the compound 2 group decreased. In this experiment, β-actin was used as the internal reference protein. n=3, data are presented as mean±SEM, analyzed with one-way ANOVA, and subjected to Tukey's HSD test. *P<0.05, **P<0.01, ***P<0.001. ^#P<0.05, ^##P<0.01, ^###P<0.001. * indicates comparison with the SHAM group, ^# indicates a comparison with the Compound 2 group.
On the technique in general: In western blotting, separated proteins are transferred to a membrane and probed.

The subject of experiment [5] is HIF-1α. Put plainly: HIF-1α immunofluorescence in brain tissue. Conditions: 72 h ischemia-reperfusion, three days of administration; compound 2 100 mg/kg, compound 1 50 mg/kg; MCAO group 568±60; mean±SEM, n=3. The method, then: as §1, with “The administration time for animal behavior tests was seven times at 0 h, 1 day, 2 days, 3 days, 4 days, 5 days, and 6 days after reperfusion, while the administration time for other experiments was three times at 0 h, 1 day, and 2 days after reperfusion. The drug was administered through the tail vein, and the sham operation group and model group were given equal amounts of saline.” left out
After 72 hours of ischemia-reperfusion, the expression changes of the inflammatory factor HIF-1α in the brain region were analyzed by immunofluorescence staining. […] Compared with the compound 1 group, the number of HIF-1α-positive cells in the compound 2 group was lower (197±33 vs 250±54/mm^2, P<0.001). n=3, data are presented as mean±SEM, analyzed using one-way ANOVA, and subjected to Tukey's HSD test. *P<0.05, **P<0.01, ***P<0.001. ^#P<0.05, ^##P<0.01, ^###P<0.001. * indicates a comparison with the MCAO group, ^# indicates comparison with the compound 2 group.

The test system of experiment [6] is MCAO model mice. Put plainly: Modified neurological severity score (mNSS, 14-point scale). As to the method:
as §1
In addition, the neurological deficit score (mNSS) method shown in the table above was used to score the neurological function of each group of mice on a 14-point scale. Neurobehavioral scores were assessed in mice of the SHAM group, MCAO group, Compound 2 group, and Compound 1 group on day 1, 3, 5, and 7 post-surgery. […]

The mark [7] stands for this setting: compound 2 100 mg/kg vs compound 1 50 mg/kg.

Regarding `O=C(O)c1cc(O)ccc1O` [compound 1], the “HIF-1α mRNA expression level reduced compared with MCAO group” value in experiment [1] came to 41±13%. Moreover, the “Number of TNF-α-positive cells” value in experiment [2] is 244±36 /mm^2. In addition, the “Decrease in IL-6 expression compared with MCAO group” value in experiment [3] was “reduced to varying degrees”. The “iba1 protein expression reduced compared with MCAO group” value in experiment [4] is “decreased”. For the same molecule, the “Number of HIF-1α-positive cells” value in experiment [5] is on record as 250±54 /mm^2.

Consider `O=C(O)c1cc(OP(=O)(O)O)ccc1OP(=O)(O)O` [compound 2], for which the “HIF-1α mRNA expression level decreased compared with the compound 1 group” value in experiment [1] (compound 2 100 mg/kg vs compound 1 50 mg/kg, P<0.001) was determined as 53±11%. For the same molecule, the “HIF-1α mRNA expression level reduced compared with MCAO group” value in experiment [1] was determined as 75±17%. For the same molecule, the “Number of TNF-α-positive cells” value in experiment [2] was 140±35 /mm^2. Also, in experiment [3], the “Decrease in IL-6 expression compared with MCAO group” value was 40±10%. Further, the “Neurological function (mNSS 14-point scale) compared with the compound 1 group” value in experiment [6] (setting [7]) was “significantly improved”. Moreover, the “Neurological function (mNSS 14-point scale) compared with MCAO group” value in experiment [6] (day 1 to day 7 of reperfusion, 100 mg/kg tail vein) is “improved significantly”. In experiment [4] (setting [7]), the “iba1 protein expression level compared with the compound 1 group” value is “decreased”. For the same molecule, in experiment [4], the “iba1 protein expression reduced compared with MCAO group” value was 50±12%. For the same molecule, in experiment [5], the “Number of HIF-1α-positive cells” value is reported as 197±33 /mm^2.
